For 24 compounds, Ki and IC50 results are on record in patent publication US20110166121A1 (LG LIFE SCIENCES LTD., priority 2008, published 2011).

The subject of test [1] is Human platelet aggregation caused by ADP. The experiment in a line: Inhibition of ADP-induced platelet aggregation (Mimic-human PRP). It is filed as cell-based. The settings on record: 20 μM ADP, human platelet concentrate diluted with PPP, absorption at 595 nm. In short, it runs like this: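 Human PRP diluted with PPP to 3–4×10^8 platelets/mL was preincubated 20 min at room temperature with compound (0.01–30 μM, DMSO), then stimulated with 20 μM ADP. Aggregation read as A595 increase at 3 min versus 0 and 20 μM ADP controls; Ki from sigmoidal non-linear regression.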

The target in the next test is T1, Human P2Y12 receptor (Homo sapiens, UniProt Q9H244).
T1 construct: expressed in transfected cells; host or cells: HEK cells
The experiment in a line: Human P2Y12 receptor cell membrane binding assay with [3H] 2-Mes-ADP. The settings on record: 1 nM [3H] 2-Mes-ADP, membranes of HEK cells expressing P2Y12 receptor; read-out: Binding activity (IC50). In short, it runs like this:
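Membranes from HEK cells expressing human P2Y12 were incubated with compound and 1 nM [3H]2-MeS-ADP for 1 h at room temperature. Bound radioactivity was collected by GF/B filtration.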

A value given as a limit tells only on which side of the number the result lay.

T1 sequence (Q9H244 whole entry): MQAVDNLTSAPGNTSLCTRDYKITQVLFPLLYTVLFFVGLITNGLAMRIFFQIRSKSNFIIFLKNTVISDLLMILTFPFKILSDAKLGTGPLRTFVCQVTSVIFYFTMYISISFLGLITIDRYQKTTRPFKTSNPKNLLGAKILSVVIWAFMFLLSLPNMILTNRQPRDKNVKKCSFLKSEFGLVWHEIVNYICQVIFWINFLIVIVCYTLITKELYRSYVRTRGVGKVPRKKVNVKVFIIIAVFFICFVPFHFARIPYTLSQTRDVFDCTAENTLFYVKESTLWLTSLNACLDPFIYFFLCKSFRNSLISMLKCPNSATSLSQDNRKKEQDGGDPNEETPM

As to `CCCc1cc2c(N3CCn4c(nnc4C(F)(F)F)C3)nc(Oc3ccccc3C(=O)OC)nc2s1` [Example 3-32, 2-[6-Propyl-4-(3-trifluoromethyl-5,6-dihydro-8H-[1,2,4]triazolo[4,3-a]pyrazin-7-yl)-thieno[2,3-d]pyrimidin-2-yloxy]-benzoic acid methyl ester], the Ki (usually the equilibrium dissociation constant of an inhibitor or competing ligand from its target) in test [1] was > 4000 nM. At Human P2Y12 receptor, the IC50 (commonly the concentration needed to halve the response being measured) worked out at 650 nM.

On to `CCCc1cc2c(N3CCn4c(nnc4C(F)(F)F)C3)nc(Oc3ccccc3C(=O)O)nc2s1` [Example 3-33, 2-[6-Propyl-4-(3-trifluoromethyl-5,6-dihydro-8H-[1,2,4]triazolo[4,3-a]pyrazin-7-yl)-thieno[2,3-d]pyrimidin-2-yloxy]-benzoic acid], for which the Ki in test [1] is > 4000 nM. The IC50 at Human P2Y12 receptor was found to be 2220 nM.

For the compound `CCCc1cc2c(N3CCn4c(nnc4C(F)(F)F)C3)nc(Oc3ccc(C(=O)OC)cc3)nc2s1` [Example 3-34, 4-[6-Propyl-4-(3-trifluoromethyl-5,6-dihydro-8H-[1,2,4]triazolo[4,3-a]pyrazin-7-yl)-thieno[2,3-d]pyrimidin-2-yloxy]-benzoic acid methyl ester], the Ki in test [1] was > 4000 nM. Moreover, the IC50 on Human P2Y12 receptor came out at 473 nM.

As for `CCCc1cc2c(N3CCn4c(nnc4C(F)(F)F)C3)nc(Oc3ccc(C(=O)O)cc3)nc2s1` [Example 3-35, 4-[6-Propyl-4-(3-trifluoromethyl-5,6-dihydro-8H-[1,2,4]triazolo[4,3-a]pyrazin-7-yl)-thieno[2,3-d]pyrimidin-2-yloxy]-benzoic acid], in test [1], affinity was put at a Ki of 1400 nM. Moreover, at Human P2Y12 receptor, the 50% inhibitory concentration (IC50) worked out at 99 nM.

In test [1], `CCCc1cc2c(N3CCn4c(nnc4C(F)(F)F)C3)nc(Oc3ccccn3)nc2s1` [Example 3-36, 7-[6-Propyl-2-(pyridin-2-yloxy)-thieno[2,3-d]pyrimidin-4-yl]-3-trifluoromethyl-5,6,7,8-tetrahydro-[1,2,4]triazolo[4,3-a]pyrazine] displayed a Ki of 940 nM. The IC50 at Human P2Y12 receptor was found to be 260 nM.

In turn, `CCCc1cc2c(N3CCn4c(nnc4C(F)(F)F)C3)nc(Oc3cccc(C#N)c3)nc2s1` [Example 3-37, 3-[6-Propyl-4-(3-trifluoromethyl-5,6-dihydro-8H-[1,2,4]triazolo[4,3-a]pyrazin-7-yl)-thieno[2,3-d]pyrimidin-2-yloxy]-benzonitrile] yielded a Ki in test [1] of 1300 nM. Further, the IC50 on Human P2Y12 receptor amounted to 198 nM.

`CCCc1cc2c(N3CCn4c(nnc4C(F)(F)F)C3)nc(Oc3ccc(C#N)cc3)nc2s1` [Example 3-38, 4-[6-Propyl-4-(3-trifluoromethyl-5,6-dihydro-8H-[1,2,4]triazolo[4,3-a]pyrazin-7-yl)-thieno[2,3-d]pyrimidin-2-yloxy]-benzonitrile] had a Ki in test [1] of 2200 nM. Also, the IC50 on Human P2Y12 receptor amounted to 179 nM.

In test [1], `CCCc1cc2c(N3CCn4c(nnc4C(F)(F)F)C3)nc(Oc3ccc(CC(=O)OC)cc3)nc2s1` [Example 3-39, {4-[6-Propyl-4-(3-trifluoromethyl-5,6-dihydro-8H-[1,2,4]triazolo[4,3-a]pyrazin-7-yl)-thieno[2,3-d]pyrimidin-2-yloxy]-phenyl}-acetic acid methyl ester] came in with a Ki of 2400 nM. Besides, on Human P2Y12 receptor, the IC50 amounted to 300 nM.

`CCCc1cc2c(N3CCn4c(nnc4C(F)(F)F)C3)nc(Oc3ccc(CC(=O)O)cc3)nc2s1` [Example 3-40, {4-[6-Propyl-4-(3-trifluoromethyl-5,6-dihydro-8H-[1,2,4]triazolo[4,3-a]pyrazin-7-yl)-thieno[2,3-d]pyrimidin-2-yloxy]-phenyl}-acetic acid] returned a Ki in test [1] of 1200 nM. Further, the IC50 at Human P2Y12 receptor was 230 nM.

In turn, `CCCc1cc2c(N3CCn4c(nnc4C(F)(F)F)C3)nc(Oc3ccc(CCC(=O)OC)cc3)nc2s1` [Example 3-41, 3-{4-[6-Propyl-4-(3-trifluoromethyl-5,6-dihydro-8H-[1,2,4]triazolo[4,3-a]pyrazin-7-yl)-thieno[2,3-d]pyrimidin-2-yloxy]-phenyl}-propionic acid methyl ester] had a Ki in test [1] of 1500 nM. Further, the IC50 at Human P2Y12 receptor came to 390 nM.

On to `CCCc1cc2c(N3CCn4c(nnc4C(F)(F)F)C3)nc(Oc3ccc(CCC(=O)O)cc3)nc2s1` [Example 3-42, 3-{4-[6-Propyl-4-(3-trifluoromethyl-5,6-dihydro-8H-[1,2,4]triazolo[4,3-a]pyrazin-7-yl)-thieno[2,3-d]pyrimidin-2-yloxy]-phenyl}-propionic acid], for which, in test [1], the affinity corresponds to a Ki of 660 nM. In addition, on Human P2Y12 receptor, the IC50 stood at 250 nM.

Turning to `CCCc1cc2c(N3CCn4c(nnc4C(F)(F)F)C3)nc(Oc3ccc(OCC(=O)OC)cc3)nc2s1` [Example 3-43, {4-[6-Propyl-4-(3-trifluoromethyl-5,6-dihydro-8H-[1,2,4]triazolo[4,3-a]pyrazin-7-yl)-thieno[2,3-d]pyrimidin-2-yloxy]-phenoxy}-acetic acid methyl ester], the Ki in test [1] is > 4000 nM. Moreover, on Human P2Y12 receptor, the IC50 worked out at 650 nM.

With `CCCc1cc2c(N3CCn4c(nnc4C(F)(F)F)C3)nc(Oc3ccc(OCC(=O)O)cc3)nc2s1` [Example 3-44, {4-[6-Propyl-4-(3-trifluoromethyl-5,6-dihydro-8H-[1,2,4]triazolo[4,3-a]pyrazin-7-yl)-thieno[2,3-d]pyrimidin-2-yloxy]-phenoxy}-acetic acid], the inhibition constant (Ki) in test [1] was determined as 500 nM. The IC50 on Human P2Y12 receptor amounted to 180 nM.

Take `CCCc1cc2c(N3CCn4c(nnc4C(F)(F)F)C3)nc(Oc3cccc(N4CCNCC4)c3)nc2s1` [Example 3-45, 7-[2-(3-piperazin-1-yl-phenoxy)-6-propyl-thieno[2,3-d]pyrimidin-4-yl]-3-trifluoromethyl-5,6,7,8-tetrahydro-[1,2,4]triazolo[4,3-a]pyrazine]: the Ki in test [1] was > 4000 nM. At Human P2Y12 receptor, the IC50 was 1900 nM.

Take `CCCc1cc2c(N3CCn4c(nnc4C(F)(F)F)C3)nc(Oc3ccc(N4CCNCC4)cc3)nc2s1` [Example 3-46, 7-[2-(4-piperazin-1-yl-phenoxy)-6-propyl-thieno[2,3-d]pyrimidin-4-yl]-3-trifluoromethyl-5,6,7,8-tetrahydro-[1,2,4]triazolo[4,3-a]pyrazine]: the Ki in test [1] is > 4000 nM. The IC50 on Human P2Y12 receptor turned out to be 2330 nM.

As for `CCCc1cc2c(N3CCn4c(nnc4C(F)(F)F)C3)nc(Oc3ccc(C=O)cc3)nc2s1` [Example 3-47, 4-[6-Propyl-4-(3-trifluoromethyl-5,6-dihydro-8H-[1,2,4]triazolo[4,3-a]pyrazin-7-yl)-thieno[2,3-d]pyrimidin-2-yloxy]-benzaldehyde], the Ki in test [1] is > 4000 nM. For the same compound, the IC50 at Human P2Y12 receptor worked out at 375 nM.

Regarding `CCCc1cc2c(N3CCn4c(nnc4C(F)(F)F)C3)nc(Oc3ccc(CO)cc3)nc2s1` [Example 3-48, {4-[6-Propyl-4-(3-trifluoromethyl-5,6-dihydro-8H-[1,2,4]triazolo[4,3-a]pyrazin-7-yl)-thieno[2,3-d]pyrimidin-2-yloxy]-phenyl}-methanol], the Ki in test [1] was > 4000 nM. Moreover, on Human P2Y12 receptor, the IC50 is 340 nM.

On to `CCc1cc2c(N3CCn4c(nnc4C(F)(F)F)C3)nc(OCCO)nc2s1` [Example 3-50, 2-[6-Ethyl-4-(3-trifluoromethyl-5,6-dihydro-8H-[1,2,4]triazolo[4,3-a]pyrazin-7-yl)-thieno[2,3-d]pyrimidin-2-yloxy]-ethanol], for which the inhibition constant Ki in test [1] stood at 141 nM. Also, the IC50 at Human P2Y12 receptor was 596 nM.

Take `CCCc1cc2c(N3CCn4c(nnc4C(F)(F)F)C3)nc(SCc3ccccc3)nc2s1` [Example 3-51, 7-(2-Benzylsulfanyl-6-propyl-thieno[2,3-d]pyrimidin-4-yl)-3-trifluoromethyl-5,6,7,8-tetrahydro-[1,2,4]triazolo[4,3-a]pyrazine]: the Ki in test [1] was determined as 1170 nM. In addition, the IC50 at Human P2Y12 receptor is 700 nM.

In test [1], `CCCc1cc2c(N3CCn4c(nnc4C(F)(F)F)C3)nc(Sc3ncccn3)nc2s1` [Example 3-53, 7-[6-Propyl-2-(pyrimidin-2-ylsulfanyl)-thieno[2,3-d]pyrimidin-4-yl]-3-trifluoromethyl-5,6,7,8-tetrahydro-[1,2,4]triazolo[4,3-a]pyrazine] returned a Ki of 760 nM. In addition, the IC50 on Human P2Y12 receptor came out at 570 nM.

In turn, `CCCc1cc2c(N3CCn4c(nnc4C(F)(F)F)C3)nc(OCCNCC(=O)O)nc2s1` [Example 3-55, {2-[6-Propyl-4-(3-trifluoromethyl-5,6-dihydro-8H-[1,2,4]triazolo[4,3-a]pyrazin-7-yl)-thieno[2,3-d]pyrimidin-2-yloxy]-ethylamino}-acetic acid] showed a Ki in test [1] of 25 nM. Also, the IC50 at Human P2Y12 receptor worked out at 150 nM.

In test [1], `CCCc1cc2c(N3CCn4c(nnc4C(F)(F)F)C3)nc(OCCN)nc2s1` [Example 3-58, 2-[6-Propyl-4-(3-trifluoromethyl-5,6-dihydro-8H-[1,2,4]triazolo[4,3-a]pyrazin-7-yl)-thieno[2,3-d]pyrimidin-2-yloxy]-ethylamine] returned a Ki of 21 nM. On Human P2Y12 receptor, the half-inhibitory concentration (IC50) was 400 nM.

Compound `CCCc1cc2c(N3CCn4c(nnc4C(F)(F)F)C3)nc(OCCNC(=O)COC)nc2s1` [Example 3-63, 2-Methoxy-N-{2-[6-propyl-4-(3-trifluoromethyl-5,6-dihydro-8H-[1,2,4]triazolo[4,3-a]pyrazin-7-yl)-thieno[2,3-d]pyrimidin-2-yloxy]-ethyl}-acetamide] showed an inhibitory constant (Ki) in test [1] of 7 nM. At Human P2Y12 receptor, the IC50 was determined as 43 nM.

`CCCc1cc2c(N3CCn4c(nnc4C(F)(F)F)C3)nc(OCCNS(C)(=O)=O)nc2s1` [Example 3-64, N-{2-[6-Propyl-4-(3-trifluoromethyl-5,6-dihydro-8H-[1,2,4]triazolo[4,3-a]pyrazin-7-yl)-thieno[2,3-d]pyrimidin-2-yloxy]-ethyl}-methanesulfonamide] yielded a Ki in test [1] of 150 nM. The 50% inhibitory concentration (IC50) at Human P2Y12 receptor turned out to be 110 nM.
